Here are results for 5 compounds from patent US5780433A (priority 1996, dated 1998).

Where “and” joins values, the source holds several entries; their conditions need not be identical. Identical values can stand only once. Entries after “also recorded” stand apart in the source; their conditions may differ.

In test [1] the test system is norepinephrine release, hippocampal slice preparations. The settings on record: cited from earlier work.
Test [2] concerns nicotine-stimulated [3H]-dopamine release from rat striatal synaptosomes. The settings on record: read-out: EC50, increase of [3H]-dopamine release; cited from earlier work.
Test [3] deals with nicotine-stimulated norepinephrine release, hippocampal synaptosomes. The settings on record: cited from earlier work.
Test [4] concerns nicotine-stimulated [3H]-dopamine release from rat striatal synaptosomes. The format is cell-based.
For test [5], the system named is nicotine-stimulated norepinephrine release, hippocampal synaptosomes. The format is cell-based, rat.
In test [6] the test system is other nAChR subunit combinations (α7, α4β2, α2β2, α3β4, α1β1δγ, α4β4). The settings on record: cited from earlier work.
The subject of test [7] is potassium-stimulated dopamine release. The format is cell-based, rat.
Test [8] deals with α3β2 nAChRs expressed in Xenopus oocytes (Rattus norvegicus, UniProt P04757+P12390). The settings on record: read-out: IC50, block of α3β2 nAChRs; cited from earlier work.
Sequence of α3β2 nAChRs expressed in Xenopus oocytes (P04757 26-499 limits assumed): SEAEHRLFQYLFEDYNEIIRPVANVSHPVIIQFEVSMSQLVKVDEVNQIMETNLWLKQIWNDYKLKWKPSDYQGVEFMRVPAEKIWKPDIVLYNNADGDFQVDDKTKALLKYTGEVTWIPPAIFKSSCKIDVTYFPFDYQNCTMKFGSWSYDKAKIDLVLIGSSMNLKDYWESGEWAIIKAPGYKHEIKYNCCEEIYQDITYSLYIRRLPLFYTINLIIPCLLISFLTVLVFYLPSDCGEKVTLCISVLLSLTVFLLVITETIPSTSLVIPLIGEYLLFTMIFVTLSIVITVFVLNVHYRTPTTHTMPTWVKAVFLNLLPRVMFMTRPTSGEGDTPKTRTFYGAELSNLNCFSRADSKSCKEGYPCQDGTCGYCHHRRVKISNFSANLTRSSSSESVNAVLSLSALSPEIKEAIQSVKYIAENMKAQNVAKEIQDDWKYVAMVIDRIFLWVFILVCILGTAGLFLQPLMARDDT
Sequence of α3β2 nAChRs expressed in Xenopus oocytes (P12390 25-500 limits assumed): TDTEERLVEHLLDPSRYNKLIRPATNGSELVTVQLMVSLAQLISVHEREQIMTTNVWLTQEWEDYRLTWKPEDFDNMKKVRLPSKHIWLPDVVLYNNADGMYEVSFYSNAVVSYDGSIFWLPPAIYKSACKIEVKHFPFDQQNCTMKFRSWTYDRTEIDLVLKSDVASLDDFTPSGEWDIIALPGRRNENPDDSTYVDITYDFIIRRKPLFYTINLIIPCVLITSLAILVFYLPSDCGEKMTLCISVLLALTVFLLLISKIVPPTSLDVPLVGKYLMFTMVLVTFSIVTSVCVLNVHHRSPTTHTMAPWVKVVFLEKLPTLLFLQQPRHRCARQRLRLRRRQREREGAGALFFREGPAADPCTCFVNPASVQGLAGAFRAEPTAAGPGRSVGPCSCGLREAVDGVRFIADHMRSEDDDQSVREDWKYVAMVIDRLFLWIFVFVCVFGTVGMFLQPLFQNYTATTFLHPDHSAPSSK

Consider `CN1CCCC1c1cccnc1.O=C(O)C(O)C(O)C(=O)O` (single isomer, unassigned; (-)) [nicotine, (-)Nicotine hydrogen tartrate], for which the “norepinephrine release over baseline” value in test [1] is listed as ~ 700%. The figures for the EC50 in test [2] and in test [3] were 160 nM and 6500 nM, respectively.

As for `CNC1(C)C2CCC(C2)C1(C)C` (centres unmarked) [mecamylamine, reference compound], the “block of nicotine-stimulated dopamine release” value in test [4] was “fully blocked”.

As to `NC1=N[C@H](O)[C@H]2[C@H]3O[C@]4(O)O[C@@H]([C@@H](O)[C@@]2(N1)[C@@H]4O)[C@]3(O)CO` [tetrodotoxin], in test [1], the “block of nicotine-stimulated norepinephrine release from hippocampal slices” value was “majority”. Further, in test [3], the “effect on nicotine-stimulated synaptosomal release of norepinephrine” value is “not affected”.

Consider α-conotoxin ImI [reference compound], for which, in test [4], the “block of nicotine-stimulated dopamine release” value is on record as “do not block; also recorded: no effect”.

Regarding α-conotoxin MII, in test [5], the “block of nicotine-stimulated norepinephrine release” value is listed as “significant block” and the “block of nicotine-stimulated synaptosomal norepinephrine release” value was “do not block”. In addition, in test [4], the “block of nicotine-evoked [3H]-dopamine release” value is “significantly blocked”; the “block of nicotine-stimulated [3H]-dopamine release” value is 33% and 34% and 44% and 50%; the “block of nicotine-stimulated [3H]-dopamine release (words)” value is listed as “nonsignificant trend toward block”; the “block of nicotine-stimulated dopamine release” value is on record as “blocks a fraction; also recorded: blocks a part but not all”. Further, in test [6], the “affinities for other nAChR subunit combinations relative to α3β2” value is listed as “two to four orders-of-magnitude higher”; the “discrimination between the α3/β2 and α3/β4 interface” value is reported as “four orders-of-magnitude”. The “effect on potassium-stimulated dopamine release” value in test [7] is “no effect”. The IC50 (commonly the point on the concentration scale where inhibition reaches its midpoint) in test [8] was 0.5 nM.
